Data on five molecules can be found in ChEMBL document CHEMBL4513135, “CO-ADD screening of IQOG CSIS (Spain) compounds”.

In brackets after ≈: the same amount, converted by molar mass. Some results are limits rather than exact numbers.

One experiment deals with HEK293. The experiment is described as follows: cells. The note with it: Homo sapiens, ATCC CRL1573, HEK293; ASSAY_TEST Inhibition of Cell Viability; detection method Resazurin; Fluorescence (ex560/em590); MEDIA DMEM with 10% FBS; plate type 384well; TC; CORNING #3712; time 18 hr. Type of experiment: functional. (The colour change of resazurin is a common sign of viable cells or microbes.)

The next experiment has as its system Staphylococcus aureus. The experiment is described as follows: microbe, parasite or virus in culture. The note with it: ATCC 43300, 18 h, ASSAY_TEST Inhibition of Bacterial Growth, detection method Absorption (OD600), MEDIA CAMHB, plate type 384well, NBS, CORNING #3640.
The test system of the next experiment is Escherichia coli. Put plainly: microbe, parasite or virus in culture. To be noted: ATCC 25922, 18 h, ASSAY_TEST Inhibition of Bacterial Growth, detection method Absorption (OD600), MEDIA CAMHB, plate type 384well, NBS, CORNING #3640.
A further experiment has as its system Klebsiella pneumoniae. The experiment is described as follows: microbe, parasite or virus in culture. The note with it: ATCC 700603, 18 h, ASSAY_TEST Inhibition of Bacterial Growth, detection method Absorption (OD600), MEDIA CAMHB, plate type 384well, NBS, CORNING #3640.
The next experiment deals with Pseudomonas aeruginosa. Put plainly: microbe, parasite or virus in culture. To be noted: ATCC 27853, 18 h, ASSAY_TEST Inhibition of Bacterial Growth, detection method Absorption (OD600), MEDIA CAMHB, plate type 384well, NBS, CORNING #3640.
The subject of another experiment is Acinetobacter baumannii. The experiment is described as follows: microbe, parasite or virus in culture. To be noted: ATCC 19606, 18 h, ASSAY_TEST Inhibition of Bacterial Growth, detection method Absorption (OD600), MEDIA CAMHB, plate type 384well, NBS, CORNING #3640.
The subject of the next experiment is Candida albicans. Put plainly: microbe, parasite or virus in culture. To be noted: ATCC 90028, ASSAY_TEST Inhibition of Fungal Growth, detection method Absorption (OD530), plate type 384well, NBS, CORNING #3640.

Description for Acinetobacter baumannii: Antibacterial activity against Acinetobacter baumannii ATCC 19606 (CO-ADD:GN_034); MIC in CAMBH media using NBS plates, by OD600
Description for Candida albicans: Antifungal activity against Candida albicans ATCC 90028 (CO-ADD:FG_001); MIC in YNB media using NBS plates, by OD630
Description for Cryptococcus neoformans: Antifungal activity against Cryptococcus neoformans H99 ATCC 208821 (CO-ADD:FG_002); MIC in YNB media using NBS plates, by Resazurin OD(600-570)
Description for Escherichia coli: Antibacterial activity against Escherichia coli ATCC 25922 (CO-ADD:GN_001); MIC in CAMBH media using NBS plates, by OD(600)
Description for Klebsiella pneumoniae: Antibacterial activity against Klebsiella pneumoniae MDR ATCC 70063 (CO-ADD:GN_003); MIC in CAMBH media using NBS plates, by OD(600)
Description for Pseudomonas aeruginosa: Antibacterial activity against Pseudomonas aeruginosa ATCC 27853 (CO-ADD:GN_042); MIC in CAMBH media using NBS plates, by OD(600)
Description for Staphylococcus aureus: Antibacterial activity against Staphylococcus aureus MRSA ATCC 43300 (CO-ADD:GP_020); MIC in CAMBH media, using NBS plates, by OD(600)

A word on the CC50: it is the concentration giving 50% cytotoxicity. Turning to `CCOC(=O)C1=C(C)OC(N)=C(C#N)C1c1ccc(Cl)cc1` (stereo not given), in the experiment on HEK293, the CC50 was greater than 32 µg/mL. For the same molecule, the MIC in the experiment on Cryptococcus neoformans, against Staphylococcus aureus, with Escherichia coli, against Klebsiella pneumoniae, against Pseudomonas aeruginosa and in the experiment on Acinetobacter baumannii was greater than 32 µg/mL each time. The molecule also returned an MIC in the experiment on Candida albicans of 32 µg/mL (≈ 100 µM).

Molecule `CCOC(=O)c1cc2cc(OCCCC3CCN(Cc4ccccc4)CC3)ccc2[nH]1.Cl` showed a CC50 in the experiment on HEK293 of 16.5 µg/mL. Also, the MIC in the experiment on Cryptococcus neoformans, against Staphylococcus aureus, in the experiment on Escherichia coli, against Klebsiella pneumoniae, in the experiment with Pseudomonas aeruginosa and with Acinetobacter baumannii was greater than 32 µg/mL throughout. The molecule further came in with an MIC against Candida albicans greater than 32 µg/mL.

`CCOC(=O)c1c(C)nc(NCCCCC2CCN(Cc3ccccc3)CC2)c(C#N)c1-c1ccccc1` showed a CC50 with HEK293 of 18.8 µg/mL (≈ 36.8 µM). Besides, the MIC against Cryptococcus neoformans, against Staphylococcus aureus, against Escherichia coli, with Klebsiella pneumoniae, in the experiment with Pseudomonas aeruginosa and in the experiment on Acinetobacter baumannii was greater than 32 µg/mL throughout. The MIC with Candida albicans was greater than 32 µg/mL.

Regarding `COc1ccc(CCl)c2cccnc12`, the CC50 in the experiment with HEK293 was greater than 32 µg/mL. Further, the MIC with Cryptococcus neoformans, against Staphylococcus aureus, in the experiment with Escherichia coli, with Klebsiella pneumoniae, in the experiment on Pseudomonas aeruginosa and with Acinetobacter baumannii was greater than 32 µg/mL throughout. The same molecule registered an MIC against Candida albicans of 32 µg/mL (≈ 154 µM).

`CC1=C(C(=O)OC(C)(C)C)C(c2ccccc2)C(C#N)=C(N)O1` (stereo not given) displayed a CC50 in the experiment with HEK293 greater than 32 µg/mL. In addition, the MIC in the experiment with Cryptococcus neoformans, against Staphylococcus aureus, against Escherichia coli, in the experiment with Klebsiella pneumoniae, against Pseudomonas aeruginosa and in the experiment on Acinetobacter baumannii was greater than 32 µg/mL each time. Besides, the MIC in the experiment on Candida albicans came out at 32 µg/mL (≈ 102 µM).
